The source of these data is patent US20260109712A1, “RIFAMYCINS FOR NONTUBERCULOUS MYCOBACTERIA” (priority 2022, published 2026).

Each structure is given as a SMILES string. In brackets after ≈: the same amount, converted by molar mass.

One test has as its system M. abscessus ATCC 19977. Kind of test: MIC assay in 96-well plate format, wild-type strain. It is filed as cell-based, Mycobacterium abscessus. As to conditions: for MIC: M. abscessus ATCC 19977, 90% growth inhibition, read-out: WT Mab MIC; for MIC ratio: WT MIC/Δarr strain MIC; for fold loss of potency compared to 5a: MIC against M. abscessus; for MICWT: Table 10. On the procedure: (§1) MIC determination was carried out in 96-well plate format as previously described.^[13-14] 96-well plates were initially set up with 100 μL of 7H9 per well. For each compound, a ten-point two-fold dilution series starting at twice the desired highest concentration was dispensed onto the 96-well plates using a Tecan D300e Digital Dispenser, with the DMSO concentration normalized to 2%. M. abscessus culture grown to mid-log phase (OD600=0.4-0.6) was diluted to OD600=0.1 (1×10^7 CFU/mL). […] Untreated control wells are included on each plate that contain bacteria suspension and 1% DMSO. Plates were sealed with parafilm, stored in boxes with wet paper towels and incubated at 37° C. with shaking (110 RPM). Plates were incubated for 3 days. To determine growth, OD600 was measured using a Tecan Infinite M200 plate reader on Day 0 and Day 3. Two biological replicates were performed. Clarithromycin was included in each experiment as a positive control.
(§2) For each well on the 96-well plate, bacterial growth was calculated by subtracting the Day 0 OD600 value from the Day 3 OD600 value. […] For compound-containing wells, percentage growth was calculated by dividing their growth values by the average drug-free bacterial growth for the compound series and multiplying by 100. For each compound series, we plotted percentage growth versus compound concentration.

The subject of the next test is Δarr M. abscessus. Nature of the test: MIC assay, isogenic arr-deleted strain. As to conditions: for Δarr Mab MIC: arr-deleted strain, 90% growth inhibition; for MICΔorr: Table 10. Type of test: cell-based, Mycobacterium abscessus. Here is the method: as §1, §2

With `CO[C@H]1/C=C/O[C@@]2(C)Oc3c(C)c(O)c4c(c3C2=O)C2=NC3(CCN(CC(C)C)CC3)NC2=C(NC(=O)/C(C)=C/C=C/[C@H](C)[C@H](O)[C@@H](C)[C@@H](O)[C@@H](C)[C@H](OC(=O)c2ccccc2F)[C@@H]1C)C4=O` [5e, 25-O-(2-fluorobenzoyl)-25-O-desacetyrifabutin], in the test on M. abscessus ATCC 19977, the MIC (commonly the least concentration at which growth counts as inhibited) amounted to 0.06 µM (≈ 0.0556 µg/mL) and the MIC ratio was found to be 1.0. The “Δarr Mab MIC” value with Δarr M. abscessus was 0.058 µM.
Take `CO[C@H]1/C=C/O[C@@]2(C)Oc3c(C)c(O)c4c(c3C2=O)C2=NC3(CCN(CC(C)C)CC3)NC2=C(NC(=O)/C(C)=C/C=C/[C@H](C)[C@H](O)[C@@H](C)[C@@H](O)[C@@H](C)[C@H](OC(=O)c2ccccc2Cl)[C@@H]1C)C4=O` [5f, 25-O-(2-chlorobenzoyl)-25-O-desacetyrifabutin]: in the test with M. abscessus ATCC 19977, the MIC amounted to 0.043 µM (≈ 0.0406 µg/mL) and the MIC ratio is reported as 0.9. For the same compound, the “Δarr Mab MIC” value in the test with Δarr M. abscessus is 0.049 µM.
`COc1ccccc1C(=O)O[C@H]1[C@H](C)[C@H](O)[C@H](C)[C@@H](O)[C@@H](C)/C=C/C=C(\C)C(=O)NC2=C3NC4(CCN(CC(C)C)CC4)N=C3c3c(c(O)c(C)c4c3C(=O)[C@@](C)(O/C=C/[C@H](OC)[C@H]1C)O4)C2=O` [5g, 25-O-(2-methoxybenzoyl)-25-O-desacetyrifabutin]: in the test on M. abscessus ATCC 19977, the MIC was found to be 0.03 µM (≈ 0.0282 µg/mL) and the MIC ratio was 1.0. In addition, the “Δarr Mab MIC” value in the test on Δarr M. abscessus worked out at 0.03 µM.
As for `CO[C@H]1/C=C/O[C@@]2(C)Oc3c(C)c(O)c4c(c3C2=O)C2=NC3(CCN(CC(C)C)CC3)NC2=C(NC(=O)/C(C)=C/C=C/[C@H](C)[C@H](O)[C@@H](C)[C@@H](O)[C@@H](C)[C@H](OC(=O)c2ccccc2C(F)(F)F)[C@@H]1C)C4=O` [5h, 25-O-(2-trifluoromethylbenzoyl)-25-O-desacetyrifabutin], in the test on M. abscessus ATCC 19977, the MIC amounted to 0.1 µM (≈ 0.0977 µg/mL), the “fold loss of potency compared to 5a” value came out at 2 fold and the MIC ratio is 0.8. In the test on Δarr M. abscessus, the “Δarr Mab MIC” value is 0.12 µM.
For `CO[C@H]1/C=C/O[C@@]2(C)Oc3c(C)c(O)c4c(c3C2=O)C2=NC3(CCN(CC(C)C)CC3)NC2=C(NC(=O)/C(C)=C/C=C/[C@H](C)[C@H](O)[C@@H](C)[C@@H](O)[C@@H](C)[C@H](OC(=O)c2ccccc2-c2ccccc2)[C@@H]1C)C4=O` [5i, 25-O-(2-phenylbenzoyl)-25-O-desacetyrifabutin], in that order: 0.26 µM (≈ 0.256 µg/mL), 5 fold, 1.8 and 0.14 µM.
`CCC(CC)C(=O)O[C@H]1[C@H](C)[C@H](O)[C@H](C)[C@@H](O)[C@@H](C)/C=C/C=C(\C)C(=O)NC2=C3NC4(CCN(CC(C)C)CC4)N=C3c3c(c(O)c(C)c4c3C(=O)[C@@](C)(O/C=C/[C@H](OC)[C@H]1C)O4)C2=O` [5l]: in the test with M. abscessus ATCC 19977, the MIC turned out to be 1.15 µM (≈ 1.04 µg/mL) and the MIC ratio is given as 23.5. The “Δarr Mab MIC” value in the test on Δarr M. abscessus turned out to be 0.049 µM.
Turning to `CO[C@H]1/C=C/O[C@@]2(C)Oc3c(C)c(O)c4c(c3C2=O)C2=NC3(CCN(CC(C)C)CC3)NC2=C(NC(=O)/C(C)=C/C=C/[C@H](C)[C@H](O)[C@@H](C)[C@@H](O)[C@@H](C)[C@H](OC(=O)c2nccs2)[C@@H]1C)C4=O` [5o, 25-O-(2-thiazolecarbonyl)-25-O-desacetyrifabutin], in the test on M. abscessus ATCC 19977, the MIC turned out to be 0.017 µM (≈ 0.0156 µg/mL) and the MIC ratio was 1.0. For the same compound, the “Δarr Mab MIC” value in the test on Δarr M. abscessus amounted to 0.017 µM.
In the test with M. abscessus ATCC 19977, `CO[C@H]1/C=C/O[C@@]2(C)Oc3c(C)c(O)c4c(c3C2=O)C2=NC3(CCN(CC(C)C)CC3)NC2=C(NC(=O)/C(C)=C/C=C/[C@H](C)[C@H](O)[C@@H](C)[C@@H](O)[C@@H](C)[C@H](OC(=O)c2cccc(C)c2)[C@@H]1C)C4=O` [UMN8] had an MICWT of 0.075 µM. Besides, in the test on Δarr M. abscessus, the MICΔorr amounted to 0.065 µM.
Turning to `CO[C@H]1/C=C/O[C@@]2(C)Oc3c(C)c(O)c4c(c3C2=O)C2=NC3(CCN(CC(C)C)CC3)NC2=C(NC(=O)/C(C)=C/C=C/[C@H](C)[C@H](O)[C@@H](C)[C@@H](O)[C@@H](C)[C@H](OC(=O)c2ccc(C)cc2)[C@@H]1C)C4=O` [UMN9], the MICWT in the test on M. abscessus ATCC 19977 is 0.2 µM. Moreover, the MICΔorr against Δarr M. abscessus came to 0.11 µM.
As for `CCC(CC)C(=O)O[C@H]1[C@H](C)[C@H](O)[C@H](C)[C@@H](O)[C@@H](C)/C=C/C=C(\C)C(=O)NC2=C3NC4(CCN(CC(C)C)CC4)N=C3c3c(c(O)c(C)c4c3C(=O)[C@@](C)(O/C=C/[C@H](OC)[C@H]1C)O4)C2=O` [UMN17], the MICWT against M. abscessus ATCC 19977 was found to be 1.15 µM. The MICΔorr in the test on Δarr M. abscessus is 0.049 µM.
`CCC(C)C(=O)O[C@H]1[C@H](C)[C@H](O)[C@H](C)[C@@H](O)[C@@H](C)/C=C/C=C(\C)C(=O)NC2=C3NC4(CCN(CC(C)C)CC4)N=C3c3c(c(O)c(C)c4c3C(=O)[C@@](C)(O/C=C/[C@H](OC)[C@H]1C)O4)C2=O` (stereo partly drawn) [UMN21] registered an MICWT in the test with M. abscessus ATCC 19977 of 1.1 µM. This compound returned an MICΔorr in the test on Δarr M. abscessus of 0.028 µM.
For the compound `CO[C@H]1/C=C/O[C@@]2(C)Oc3c(C)c(O)c4c(c3C2=O)C2=NC3(CCN(CC(C)C)CC3)NC2=C(NC(=O)/C(C)=C/C=C/[C@H](C)[C@H](O)[C@@H](C)[C@@H](O)[C@@H](C)[C@H](OC(=O)c2ccccc2-c2ccccc2)[C@@H]1C)C4=O` [UMN25], in the test on M. abscessus ATCC 19977, the MICWT was 0.26 µM. The compound also returned an MICΔorr with Δarr M. abscessus of 0.14 µM.
`CO[C@H]1/C=C/O[C@@]2(C)Oc3c(C)c(O)c4c(c3C2=O)C2=NC3(CCN(CC(C)C)CC3)NC2=C(NC(=O)/C(C)=C/C=C/[C@H](C)[C@H](O)[C@@H](C)[C@@H](O)[C@@H](C)[C@H](OC(=O)c2ccccc2C(F)(F)F)[C@@H]1C)C4=O` [UMN30]: in the test on M. abscessus ATCC 19977, the MICWT came out at 0.1 µM. Besides, the MICΔorr with Δarr M. abscessus came out at 0.12 µM.
Turning to `CO[C@H]1/C=C/O[C@@]2(C)Oc3c(C)c(O)c4c(c3C2=O)C2=NC3(CCN(CC(C)C)CC3)NC2=C(NC(=O)/C(C)=C/C=C/[C@H](C)[C@H](O)[C@@H](C)[C@@H](O)[C@@H](C)[C@H](OC(=O)Nc2cccc(-c3ccccc3)c2)[C@@H]1C)C4=O` [UMN31], in the test on M. abscessus ATCC 19977, the MICWT turned out to be 0.27 µM. Further, the MICΔorr against Δarr M. abscessus turned out to be 0.43 µM.
Taken in the same sequence, the figures for `CO[C@H]1/C=C/O[C@@]2(C)Oc3c(C)c(O)c4c(c3C2=O)C2=NC3(CCN(CC(C)C)CC3)NC2=C(NC(=O)/C(C)=C/C=C/[C@H](C)[C@H](O)[C@@H](C)[C@@H](O)[C@@H](C)[C@H](OC(=O)Nc2ccc(-c3ccccc3)cc2)[C@@H]1C)C4=O` [UMN38] were 0.2 µM and 0.43 µM.
In the case of `CO[C@H]1/C=C/O[C@@]2(C)Oc3c(C)c(O)c4c(c3C2=O)C2=NC3(CCN(CC(C)C)CC3)NC2=C(NC(=O)/C(C)=C/C=C/[C@H](C)[C@H](O)[C@@H](C)[C@@H](O)[C@@H](C)[C@H](OC(=O)NCc2cc(-c3cccc(-c5ccccc5)c3)no2)[C@@H]1C)C4=O` [UMN41], the MICWT in the test with M. abscessus ATCC 19977 amounted to 0.25 µM. For the same compound, the MICΔorr in the test on Δarr M. abscessus came to 0.34 µM.
As to `CO[C@H]1/C=C/O[C@@]2(C)Oc3c(C)c(O)c4c(c3C2=O)C2=NC3(CCN(CC(C)C)CC3)NC2=C(NC(=O)/C(C)=C/C=C/[C@H](C)[C@H](O)[C@@H](C)[C@@H](O)[C@@H](C)[C@H](OC(=O)N2CCN(CC(F)(F)F)CC2)[C@@H]1C)C4=O` [UMN54], in the test with M. abscessus ATCC 19977, the MICWT stood at 0.13 µM. In the test on Δarr M. abscessus, this compound registered an MICΔorr of 0.029 µM.
Turning to `CO[C@H]1/C=C/O[C@@]2(C)Oc3c(C)c(O)c4c(c3C2=O)C2=NC3(CCN(CC(C)C)CC3)NC2=C(NC(=O)/C(C)=C/C=C/[C@H](C)[C@H](O)[C@@H](C)[C@@H](O)[C@@H](C)[C@H](OC(=O)N2CCN(CCO)CC2)[C@@H]1C)C4=O` [UMN55], in the test with M. abscessus ATCC 19977, the MICWT came out at 0.28 µM. In addition, the MICΔorr in the test with Δarr M. abscessus was 0.13 µM.
